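Compound exposure: 48 hours, 5 concentrations, 96-well plates. TGI marks complete inhibition of growth.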
What was measured:
Test in all cases: growth of human tumour cells (NCI), 48 h
[1] = test system: COLO 205 colon
[2] = test system: U251 CNS
[3] = test system: CCRF-CEM leukemia
[4] = test system: HL-60(TB) leukemia
[5] = test system: HCT-116 colon
[6] = test system: SK-MEL-28 melanoma
[7] = test system: OVCAR-3 ovarian
[8] = test system: A498 renal
[9] = test system: EKVX NSCLC
[10] = test system: NCI-H226 lung
[11] = test system: PC-3 prostate
[12] = test system: MDA-MB-435
[13] = test system: CAKI-1 renal
[14] = test system: HT29 colon
[15] = test system: SNB-75 CNS

Measured: TGI

COC(=O)C1[C@@H](C(=O)OC)C12C=Cc1ccccc1C=C2 (stereo partly specified)
> 100 µM: [1] | [2] | [3] | [4] | [5] | [6] | [7] | [8] | [9]

Cc1nn(-c2ccccc2)c2[nH]c(=S)cnc12
> 100 µM: [2] | [3] | [4] | [10] | [5] | [11] | [6] | [7] | [8] | [12] | [13] | [9] | [14]

N#Cc1sc2c(c1OC(=O)c1cccs1)c(=O)n(-c1ccccc1)c(=S)n2-c1ccccc1
64.6 µM: [11]
47.5 µM: [4]
42.5 µM: [1]
55.5 µM: [2]
89.9 µM: [9]
61.6 µM: [6]
43.4 µM: [10]
> 100 µM: [15] | [7] | [12] | [13] | [14]
34.2 µM: [5]

N#CC(Nc1ccccc1)c1ccc(C(C#N)Nc2ccccc2)cc1 (stereo unspecified)
> 100 µM: [1] | [2] | [10] | [5] | [11] | [6] | [7] | [8] | [12] | [13] | [9]
34.3 µM: [4]
80.9 µM: [14]
48 µM: [3]

O=C(O)c1ccc2c(c1)CC1(C2)Cc2ccccc2C1=O (stereo unspecified)
> 100 µM: [1] | [2] | [3] | [15] | [4] | [10] | [5] | [11] | [6] | [7] | [12] | [9] | [14]

CCOP(=O)(OCC)c1ccc(=O)[nH]c1-c1cccs1
> 100 µM: [1] | [2] | [15] | [10] | [5] | [11] | [6] | [7] | [8] | [12] | [13] | [9] | [14]

Fc1ccccc1-c1nn2c(C34CC5CC(CC(C5)C3)C4)nnc2s1
> 100 µM: [1] | [2] | [3] | [15] | [10] | [5] | [11] | [6] | [7] | [8] | [12] | [13] | [9] | [14]

O=c1[nH]nc(Cc2ccccc2)n1/N=C/c1ccccc1Cl
> 100 µM: [1] | [2] | [10] | [5] | [11] | [7] | [8] | [12] | [13] | [9] | [14]

COc1cc(C2C3=C(COC3=O)Oc3cc4c(cc32)OCO4)ccc1OC(C)=O (stereo unspecified)
0.585 µM: [15]
0.904 µM: [13]
> 100 µM: [2] | [10] | [5] | [11] | [6] | [9]
0.907 µM: [4]
0.602 µM: [1]
> 49.6 µM: [3]
> 30.3 µM: [8]

CN(C(=O)Cc1ccc(Cl)c(Cl)c1)[C@@H]1CCCC[C@H]1[N+]1(C)CC=CC1
> 100 µM: [1] | [2] | [4] | [10] | [5] | [11] | [6] | [7] | [8] | [12] | [13] | [9] | [14]

COC(=O)c1ccccc1/C=C1\Cc2cc(C)cc(C)c2C1=O
> 100 µM: [2] | [3] | [15] | [4] | [10] | [5] | [11] | [6] | [7] | [8] | [9] | [14]

Cn1c(NS(=O)(=O)c2ccccc2)nc2ccccc21
> 100 µM: [1] | [2] | [3] | [15] | [4] | [10] | [5] | [6] | [8] | [12] | [13] | [9] | [14]

Cc1ccc(S(=O)(=O)NC2C(=O)c3ccccc3C(=O)C2n2cnc3ccccc32)cc1 (stereo unspecified)
40.8 µM: [4]
15.4 µM: [7]
36.4 µM: [12]
> 100 µM: [1] | [2] | [3] | [15] | [10] | [5] | [6] | [13] | [9] | [14]
64.3 µM: [11]

COc1cc(NP(=O)(Oc2ccccc2)Oc2ccccc2)ccc1Nc1c2ccccc2nc2c1[nH]c1ccccc12
48.2 µM: [6]
20.2 µM: [10]
17.3 µM: [13]
> 89.7 µM: [11]
14 µM: [8]
5.7 µM: [15]
21.5 µM: [12]
44.9 µM: [9]
63.8 µM: [5]
2.96 µM: [14]
6.85 µM: [2]
4.82 µM: [7]
> 43 µM: [1]

COc1ccc2cc(/C=N\NC(=O)Nc3cccc4ccccc34)ccc2c1
47.6 µM: [13]
30.5 µM: [5]
29.9 µM: [2]
47.2 µM: [15]
41.8 µM: [3]
> 100 µM: [1] | [10] | [11] | [6] | [12] | [9] | [14]
31.3 µM: [8]

Cc1ccc(SCC(CF)OCn2cc(F)c(=O)[nH]c2=O)cc1 (stereo unspecified)
> 100 µM: [2] | [3] | [4] | [5] | [11] | [6] | [7] | [8] | [12] | [13] | [9] | [14]

Cc1cc(NCCCCCCCCCC[n+]2c(C)cc(N)c3ccccc32)c2ccccc2n1
4.3 µM: [2]
7.43 µM: [3]
13.7 µM: [11]
> 100 µM: [10] | [9] | [14]
30.7 µM: [13]
3.82 µM: [6]
1.22 µM: [1]
7.71 µM: [15]
15.4 µM: [8]
5.86 µM: [12]
11.7 µM: [5]
65.9 µM: [7]
